Test results as given in the supplement of paper PMC12076712.

What was measured:
Test in all cases: pIC50, kinobeads binding competition
[1] = target: UniProt P57059; details: cell material: Lysate mix
How it was run: (§1)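 Live Jurkat cells were treated with nine compound concentrations (top 30 μM, 1:4 steps) or DMSO for 60 min at 37 °C before lysis. Alternatively, Jurkat lysate or a 1:1:1:1 HEK293/K-562/HepG2/placenta lysate mix was incubated with nine concentrations (top 30 μM, 1:5 steps) for 60 min at 4 °C. Kinobeads-bound proteins were digested and quantified by TMT10 LC-MS/MS. pIC50 came from logistic dose-response fits (R drc package) of fold changes versus DMSO, in biological duplicates.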

[2] = target: CDK4 (UniProt P11802); details: cell material: Lysate mix
How it was run: as §1

[3] = target: UniProt Q9Y6M4; details: cell material: Lysate mix
How it was run: as §1

[4] = target: UniProt Q9Y2H1
How it was run: as §1

[5] = target: FRK (UniProt P42685); details: cell material: Lysate mix
How it was run: as §1

[6] = target: MET (UniProt P08581); details: cell material: Lysate mix
How it was run: as §1

[7] = target: PRKACB (UniProt P22694)
How it was run: as §1

[8] = target: AXL (UniProt P30530); details: cell material: Lysate mix
How it was run: as §1

[9] = target: UniProt Q02779; details: cell material: Lysate mix
How it was run: as §1

[10] = target: UniProt Q15303; details: cell material: Lysate mix
How it was run: as §1

[11] = target: CLK4 (UniProt Q9HAZ1)
How it was run: as §1

[12] = target: T1, UniProt P52564
T1 sequence (whole entry): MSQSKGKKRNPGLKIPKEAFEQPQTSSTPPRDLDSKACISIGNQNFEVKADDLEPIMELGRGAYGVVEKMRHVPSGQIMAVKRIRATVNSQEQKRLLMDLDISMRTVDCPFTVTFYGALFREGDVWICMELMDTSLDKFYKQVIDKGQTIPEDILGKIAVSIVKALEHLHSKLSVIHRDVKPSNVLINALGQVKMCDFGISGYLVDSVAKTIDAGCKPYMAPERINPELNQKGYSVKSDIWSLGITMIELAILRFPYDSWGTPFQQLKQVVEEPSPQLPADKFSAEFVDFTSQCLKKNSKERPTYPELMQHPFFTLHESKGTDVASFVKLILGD
How it was run: as §1

[13] = target: RPS6KA4 (UniProt O75676)
How it was run: as §1

[14] = target: CDC7 (UniProt O00311)
How it was run: as §1

[15] = target: AKT2 (UniProt P31751)
How it was run: as §1

[16] = target: CLK2 (UniProt P49760)
How it was run: as §1

[17] = target: T2, UniProt Q14164
T2 sequence (whole entry): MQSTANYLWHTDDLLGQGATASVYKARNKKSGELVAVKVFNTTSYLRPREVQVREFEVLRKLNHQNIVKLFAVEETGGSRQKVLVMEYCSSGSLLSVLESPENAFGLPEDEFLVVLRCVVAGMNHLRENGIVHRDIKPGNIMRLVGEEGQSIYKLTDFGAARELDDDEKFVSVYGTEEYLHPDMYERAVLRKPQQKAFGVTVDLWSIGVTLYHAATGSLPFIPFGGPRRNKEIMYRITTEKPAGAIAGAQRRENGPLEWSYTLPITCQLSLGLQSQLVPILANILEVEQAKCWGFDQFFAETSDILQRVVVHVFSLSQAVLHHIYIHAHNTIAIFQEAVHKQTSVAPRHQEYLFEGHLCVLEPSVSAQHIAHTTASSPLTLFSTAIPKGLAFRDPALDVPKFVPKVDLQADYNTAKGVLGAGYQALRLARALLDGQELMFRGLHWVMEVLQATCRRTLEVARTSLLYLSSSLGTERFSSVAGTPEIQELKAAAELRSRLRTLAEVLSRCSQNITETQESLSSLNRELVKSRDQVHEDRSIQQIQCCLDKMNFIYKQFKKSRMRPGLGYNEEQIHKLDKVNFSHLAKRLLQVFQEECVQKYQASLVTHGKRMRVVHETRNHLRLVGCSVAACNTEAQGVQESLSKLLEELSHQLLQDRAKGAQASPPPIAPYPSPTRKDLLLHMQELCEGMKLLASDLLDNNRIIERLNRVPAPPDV
How it was run: as §1

[18] = target: UniProt Q02750
How it was run: as §1

[19] = target: UniProt Q9P289
How it was run: as §1

[20] = target: T3, IRAK3 (UniProt Q9Y616); details: cell material: Lysate mix
T3 sequence (whole entry): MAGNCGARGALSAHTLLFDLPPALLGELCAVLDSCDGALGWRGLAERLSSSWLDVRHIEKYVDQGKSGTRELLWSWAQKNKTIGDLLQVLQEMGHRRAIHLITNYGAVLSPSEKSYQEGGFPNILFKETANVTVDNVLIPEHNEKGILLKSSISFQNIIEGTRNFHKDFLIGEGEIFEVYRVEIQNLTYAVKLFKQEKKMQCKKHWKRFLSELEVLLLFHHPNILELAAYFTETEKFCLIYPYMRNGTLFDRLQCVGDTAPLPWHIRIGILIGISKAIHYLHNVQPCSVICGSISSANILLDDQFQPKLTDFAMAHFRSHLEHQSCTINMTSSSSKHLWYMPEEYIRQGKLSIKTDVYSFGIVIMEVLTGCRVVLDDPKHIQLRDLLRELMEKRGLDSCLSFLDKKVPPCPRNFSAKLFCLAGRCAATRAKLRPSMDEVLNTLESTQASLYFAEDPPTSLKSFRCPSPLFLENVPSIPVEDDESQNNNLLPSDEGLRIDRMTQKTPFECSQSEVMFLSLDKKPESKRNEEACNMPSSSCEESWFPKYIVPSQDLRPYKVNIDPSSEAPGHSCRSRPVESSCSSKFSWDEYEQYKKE
How it was run: as §1

MET, sequence (P08581 whole entry): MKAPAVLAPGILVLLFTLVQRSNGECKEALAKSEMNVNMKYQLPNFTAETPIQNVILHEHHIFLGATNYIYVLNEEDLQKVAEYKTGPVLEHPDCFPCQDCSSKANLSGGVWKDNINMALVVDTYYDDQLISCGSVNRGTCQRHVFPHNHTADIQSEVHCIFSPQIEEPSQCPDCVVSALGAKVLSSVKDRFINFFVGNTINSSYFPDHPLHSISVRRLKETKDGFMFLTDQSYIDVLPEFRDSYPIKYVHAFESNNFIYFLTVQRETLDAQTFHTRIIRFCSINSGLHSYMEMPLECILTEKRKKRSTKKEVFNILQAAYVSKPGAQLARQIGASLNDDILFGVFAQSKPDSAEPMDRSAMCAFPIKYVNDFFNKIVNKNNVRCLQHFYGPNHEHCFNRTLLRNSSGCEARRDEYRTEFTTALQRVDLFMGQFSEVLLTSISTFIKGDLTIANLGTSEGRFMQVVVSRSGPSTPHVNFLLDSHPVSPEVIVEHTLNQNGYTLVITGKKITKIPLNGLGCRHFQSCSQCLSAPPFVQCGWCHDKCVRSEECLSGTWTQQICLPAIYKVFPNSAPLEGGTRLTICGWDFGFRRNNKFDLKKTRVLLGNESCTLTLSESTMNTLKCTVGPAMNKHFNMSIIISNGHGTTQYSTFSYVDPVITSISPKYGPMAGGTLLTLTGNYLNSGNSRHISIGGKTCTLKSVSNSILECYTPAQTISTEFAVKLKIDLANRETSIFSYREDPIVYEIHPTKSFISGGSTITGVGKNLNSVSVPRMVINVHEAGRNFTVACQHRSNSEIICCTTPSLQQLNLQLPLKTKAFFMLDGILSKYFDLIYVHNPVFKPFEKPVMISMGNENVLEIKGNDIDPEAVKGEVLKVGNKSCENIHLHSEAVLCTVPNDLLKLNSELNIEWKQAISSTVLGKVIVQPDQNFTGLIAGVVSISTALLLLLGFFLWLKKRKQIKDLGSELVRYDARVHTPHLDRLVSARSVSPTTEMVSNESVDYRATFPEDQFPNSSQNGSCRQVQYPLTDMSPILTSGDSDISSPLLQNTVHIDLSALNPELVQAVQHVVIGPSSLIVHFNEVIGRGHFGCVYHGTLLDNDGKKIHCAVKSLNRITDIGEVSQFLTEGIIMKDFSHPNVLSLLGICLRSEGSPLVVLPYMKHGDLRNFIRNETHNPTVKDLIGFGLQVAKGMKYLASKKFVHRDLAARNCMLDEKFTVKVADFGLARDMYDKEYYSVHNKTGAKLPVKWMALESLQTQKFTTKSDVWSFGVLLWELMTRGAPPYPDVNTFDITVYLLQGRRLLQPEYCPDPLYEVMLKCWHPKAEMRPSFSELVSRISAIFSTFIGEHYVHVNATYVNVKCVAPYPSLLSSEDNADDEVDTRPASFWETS
UniProt Q02750, sequence (Q02750 whole entry): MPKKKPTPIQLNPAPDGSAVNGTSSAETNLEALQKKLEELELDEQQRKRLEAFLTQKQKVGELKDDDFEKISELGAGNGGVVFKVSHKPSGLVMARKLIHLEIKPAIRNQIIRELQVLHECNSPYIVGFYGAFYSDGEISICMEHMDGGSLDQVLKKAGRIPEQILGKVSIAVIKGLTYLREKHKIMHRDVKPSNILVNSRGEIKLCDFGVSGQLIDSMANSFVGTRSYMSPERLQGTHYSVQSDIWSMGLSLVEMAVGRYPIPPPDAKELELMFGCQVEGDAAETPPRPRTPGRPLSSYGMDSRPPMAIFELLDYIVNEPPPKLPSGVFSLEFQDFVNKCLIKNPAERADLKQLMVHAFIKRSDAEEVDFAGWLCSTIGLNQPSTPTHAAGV
CLK2, sequence (P49760 whole entry, looked up): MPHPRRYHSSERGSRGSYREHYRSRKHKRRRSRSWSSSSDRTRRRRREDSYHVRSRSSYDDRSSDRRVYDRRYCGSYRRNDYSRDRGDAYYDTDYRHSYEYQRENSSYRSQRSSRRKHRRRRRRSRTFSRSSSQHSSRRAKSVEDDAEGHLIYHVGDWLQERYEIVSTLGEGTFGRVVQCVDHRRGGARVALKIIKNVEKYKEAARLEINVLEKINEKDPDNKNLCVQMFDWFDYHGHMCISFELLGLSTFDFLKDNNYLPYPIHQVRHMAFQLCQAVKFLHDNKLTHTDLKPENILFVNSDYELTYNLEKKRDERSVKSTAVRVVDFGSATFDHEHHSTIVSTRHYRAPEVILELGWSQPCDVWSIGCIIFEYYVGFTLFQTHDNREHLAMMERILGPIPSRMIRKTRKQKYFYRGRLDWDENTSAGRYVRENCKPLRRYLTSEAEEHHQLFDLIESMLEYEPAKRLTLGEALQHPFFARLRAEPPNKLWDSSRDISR
AKT2, sequence (P31751 whole entry): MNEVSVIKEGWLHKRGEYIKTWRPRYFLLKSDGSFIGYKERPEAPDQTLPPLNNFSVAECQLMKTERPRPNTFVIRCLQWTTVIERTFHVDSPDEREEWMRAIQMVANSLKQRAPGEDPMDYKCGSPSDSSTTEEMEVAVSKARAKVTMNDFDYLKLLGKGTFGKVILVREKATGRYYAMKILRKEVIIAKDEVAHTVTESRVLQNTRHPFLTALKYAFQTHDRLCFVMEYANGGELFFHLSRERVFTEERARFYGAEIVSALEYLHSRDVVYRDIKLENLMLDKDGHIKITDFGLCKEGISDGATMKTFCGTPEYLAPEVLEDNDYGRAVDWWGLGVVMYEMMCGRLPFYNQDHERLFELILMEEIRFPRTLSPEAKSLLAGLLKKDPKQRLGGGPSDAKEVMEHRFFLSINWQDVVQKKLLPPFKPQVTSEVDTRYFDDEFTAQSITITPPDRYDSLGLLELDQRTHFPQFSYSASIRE
UniProt P57059, sequence (P57059 whole entry): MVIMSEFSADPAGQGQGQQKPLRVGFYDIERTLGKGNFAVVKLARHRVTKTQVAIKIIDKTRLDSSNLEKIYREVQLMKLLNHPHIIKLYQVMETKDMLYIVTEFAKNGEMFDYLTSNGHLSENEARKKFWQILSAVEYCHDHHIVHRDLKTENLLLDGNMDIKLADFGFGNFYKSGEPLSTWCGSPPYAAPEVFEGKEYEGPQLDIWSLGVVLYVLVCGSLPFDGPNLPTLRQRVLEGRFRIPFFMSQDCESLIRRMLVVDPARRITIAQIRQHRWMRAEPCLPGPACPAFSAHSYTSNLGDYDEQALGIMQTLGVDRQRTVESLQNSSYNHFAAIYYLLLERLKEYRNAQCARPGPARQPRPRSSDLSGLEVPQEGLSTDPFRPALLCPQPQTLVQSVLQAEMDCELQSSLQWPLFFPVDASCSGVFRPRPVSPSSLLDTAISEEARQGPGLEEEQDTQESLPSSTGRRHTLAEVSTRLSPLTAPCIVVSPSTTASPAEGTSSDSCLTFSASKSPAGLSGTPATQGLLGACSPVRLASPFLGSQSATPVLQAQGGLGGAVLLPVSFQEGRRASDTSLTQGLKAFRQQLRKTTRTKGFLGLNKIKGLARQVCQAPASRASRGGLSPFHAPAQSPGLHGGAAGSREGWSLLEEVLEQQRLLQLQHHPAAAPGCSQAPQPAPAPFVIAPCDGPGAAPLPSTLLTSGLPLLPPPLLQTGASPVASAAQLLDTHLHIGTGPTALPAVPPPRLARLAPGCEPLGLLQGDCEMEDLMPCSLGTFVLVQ
UniProt Q9Y2H1, sequence (Q9Y2H1 whole entry, looked up): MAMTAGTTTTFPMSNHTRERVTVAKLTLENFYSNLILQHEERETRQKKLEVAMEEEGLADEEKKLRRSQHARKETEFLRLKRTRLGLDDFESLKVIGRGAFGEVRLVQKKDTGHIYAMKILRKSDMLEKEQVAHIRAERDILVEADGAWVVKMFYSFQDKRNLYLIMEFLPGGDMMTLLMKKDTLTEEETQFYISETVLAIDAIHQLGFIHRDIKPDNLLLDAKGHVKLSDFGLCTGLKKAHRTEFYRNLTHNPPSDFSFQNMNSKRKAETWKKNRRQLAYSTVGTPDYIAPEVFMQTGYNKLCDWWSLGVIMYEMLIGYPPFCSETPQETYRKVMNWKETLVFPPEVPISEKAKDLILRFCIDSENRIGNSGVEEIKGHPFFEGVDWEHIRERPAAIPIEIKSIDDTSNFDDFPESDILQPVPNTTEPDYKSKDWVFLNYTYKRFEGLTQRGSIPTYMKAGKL
AXL, sequence (P30530 whole entry): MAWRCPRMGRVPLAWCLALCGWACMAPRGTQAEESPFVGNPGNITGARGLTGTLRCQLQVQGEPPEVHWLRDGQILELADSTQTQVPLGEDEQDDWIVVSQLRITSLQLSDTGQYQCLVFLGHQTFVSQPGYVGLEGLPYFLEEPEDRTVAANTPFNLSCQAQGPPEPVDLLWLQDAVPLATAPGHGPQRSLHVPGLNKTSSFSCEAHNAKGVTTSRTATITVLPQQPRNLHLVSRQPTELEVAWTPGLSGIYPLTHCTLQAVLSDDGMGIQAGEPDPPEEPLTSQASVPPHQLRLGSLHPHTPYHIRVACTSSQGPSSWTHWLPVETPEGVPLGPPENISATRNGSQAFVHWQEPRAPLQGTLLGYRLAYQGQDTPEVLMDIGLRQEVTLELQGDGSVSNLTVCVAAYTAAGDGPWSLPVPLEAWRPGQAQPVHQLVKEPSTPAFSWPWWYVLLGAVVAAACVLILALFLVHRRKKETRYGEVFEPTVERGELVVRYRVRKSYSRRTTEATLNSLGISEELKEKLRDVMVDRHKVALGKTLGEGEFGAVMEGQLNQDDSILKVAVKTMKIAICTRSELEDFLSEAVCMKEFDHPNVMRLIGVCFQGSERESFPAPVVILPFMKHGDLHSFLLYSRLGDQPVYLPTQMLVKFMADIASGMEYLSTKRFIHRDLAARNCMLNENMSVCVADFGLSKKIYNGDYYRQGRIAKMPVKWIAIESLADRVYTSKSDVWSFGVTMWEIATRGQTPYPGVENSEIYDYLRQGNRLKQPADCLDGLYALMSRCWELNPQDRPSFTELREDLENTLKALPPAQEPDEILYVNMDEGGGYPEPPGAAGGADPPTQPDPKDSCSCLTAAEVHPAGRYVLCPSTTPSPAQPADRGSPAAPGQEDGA

Row | SMILES | pIC50 [1] | pIC50 [2] | pIC50 [3] | pIC50 ([4]; cell material: Lysate mix) | pIC50 [5] | pIC50 [6] | pIC50 ([7]; cell material: Lysate mix) | pIC50 [8] | pIC50 [9] | pIC50 [10] | pIC50 ([11]; cell material: Lysate mix) | pIC50 ([12]; cell material: Lysate mix) | pIC50 ([13]; cell material: Lysate mix) | pIC50 ([14]; cell material: Lysate mix) | pIC50 ([15]; cell material: Lysate mix) | pIC50 ([16]; cell material: Lysate mix) | pIC50 ([17]; cell material: Lysate mix) | pIC50 ([18]; cell material: Lysate mix) | pIC50 ([19]; cell material: Lysate mix) | pIC50 ([13]; cell material: Jurkat cells) | pIC50 ([13]; cell material: Jurkat lysate) | pIC50 [20] | pIC50 ([4]; cell material: Jurkat cells) | pIC50 ([4]; cell material: Jurkat lysate) | pIC50 ([14]; cell material: Jurkat cells) | pIC50 ([15]; cell material: Jurkat cells) | pIC50 ([16]; cell material: Jurkat cells) | pIC50 ([16]; cell material: Jurkat lysate) | pIC50 ([7]; cell material: Jurkat lysate) | pIC50 ([19]; cell material: Jurkat cells) | pIC50 ([17]; cell material: Jurkat cells) | pIC50 ([17]; cell material: Jurkat lysate) | pIC50 ([11]; cell material: Jurkat cells) | pIC50 ([11]; cell material: Jurkat lysate) | pIC50 ([18]; cell material: Jurkat cells) | pIC50 ([18]; cell material: Jurkat lysate) | pIC50 ([12]; cell material: Jurkat cells) | pIC50 ([12]; cell material: Jurkat lysate) | pIC50 ([7]; cell material: Jurkat cells) | pIC50 ([19]; cell material: Jurkat lysate)
1 | CCNC(=O)c1cc(Nc2cc(C)[nH]n2)nc(N2CCN(Cc3ccc(S(=O)(=O)F)cc3)CC2)n1 | < 4.52 | < 4.52 | < 4.52 | < 4.52 | 6.23 | < 4.52 | < 4.52 | 4.74 | < 4.52 | 5.04 | < 4.52 | 4.62 |  |  |  |  |  |  |  |  |  |  |  |  |  |  |  |  |  |  |  |  |  |  |  |  |  |  |  | 
2 | CCNC(=O)c1cc(Nc2cc(C3CC3)[nH]n2)nc(N2CCN(Cc3ccc(S(=O)(=O)F)cc3)CC2)n1 | < 4.52 | 5.05 | 4.89 |  | 5.98 | 4.92 |  |  | 5.14 | 4.96 | 5.05 | 5.2 | 5.34 | 4.57 | < 4.52 | 5.55 | 5.08 | 5.78 |  |  |  |  |  |  |  |  |  |  |  |  |  |  |  |  |  |  |  |  |  | 
3 | Cc1cc(Nc2cc(C(=O)NCCNC(=O)OC3CC/C=C/CCC3)nc(N3CCN(Cc4ccc(S(=O)(=O)F)cc4)CC3)n2)n[nH]1 (stereo not drawn) |  | < 4.52 |  | < 4.52 | < 4.52 | < 4.52 | < 4.52 |  | < 4.52 | < 4.52 | < 4.52 | < 4.52 | < 4.52 |  |  |  | < 4.52 | < 4.52 | < 4.52 |  |  |  |  |  |  |  |  |  |  |  |  |  |  |  |  |  |  |  |  | 
4 | C#CCNC(=O)c1cc(Nc2cc(C3CC3)[nH]n2)nc(N2CCN(Cc3ccc(S(=O)(=O)F)cc3)CC2)n1 | < 4.52 |  | < 4.52 |  | 6.27 |  |  | < 4.52 |  |  | 5.2 | 5.21 | 5.56 |  |  |  | 5.25 | 5.59 | < 4.52 | 5.84 | 4.83 | < 4.52 | 6.28 | 5.56 | 5.68 | 5.74 | 6.11 | 5.57 | < 4.52 | 6.36 | 6 | 4.89 | 6.1 | 4.85 | 5.86 | < 4.52 | 5.61 | < 4.52 |  | 
5 | C#CCNC(=O)c1cc(Nc2cc(C)[nH]n2)nc(N2CCN(Cc3ccc(S(=O)(=O)F)cc3)CC2)n1 |  |  |  | 4.77 | 5.78 | < 4.52 |  |  | < 4.52 | 4.99 |  |  | 4.84 | < 4.52 |  |  | < 4.52 |  |  |  |  | < 4.52 |  |  |  |  |  |  |  |  |  |  |  |  |  |  |  |  |  | 
6 | O=C(NCCNC(=O)c1cc(Nc2cc(C3CC3)[nH]n2)nc(N2CCN(Cc3ccc(S(=O)(=O)F)cc3)CC2)n1)OC1CC/C=C/CCC1 (stereo not drawn) | < 4.52 |  | < 4.52 | < 4.52 |  | < 4.52 |  | 4.72 | < 4.52 | < 4.52 | < 4.52 | < 4.52 | < 4.52 |  |  | < 4.52 | < 4.52 | < 4.52 | < 4.52 | 5.8 | < 4.52 | < 4.52 | 5.79 |  |  | < 4.52 | 5.92 | < 4.52 | < 4.52 |  | 5.28 | < 4.52 |  | < 4.52 |  | < 4.52 | < 4.52 | < 4.52 | < 4.52 | < 4.52
